Source: patent publication US20100203110A1, “Therapeutics for Cancer Using 3-Bromopyruvate and Other Selective Inhibitors of ATP Production” (The Johns Hopkins University, priority 2006, published 2010)
pIC50: −log10 of the molar value.

Key:
VX2 tumor glycolysis = assay: Glycolytic activity (lactic acid formation) of VX2 tumor slices; format: cell-based, rabbit
Method: Glycolysis was assayed by monitoring the formation of lactic acid following the addition of glucose to a medium containing VX2 tumor slices. Specifically, freshly excised tumors were washed 3 times at 4° C. in 20 ml Chance Hess Medium containing 6.2 mM KCl, 154 mM NaCl, and 11 mM NaPi, pH 7.4. Slices, 1 g each, were then prior incubated for 30 min in a Lab-Line incubator-shaker at 37° C. in 2 ml of the same medium while shaking at 50 rpm. Glucose was then added to give a final concentration of 6 mM, after which the incubation/shaking process was continued with 0.2 ml samples being removed every 30 min for up to 2 h. These samples were subjected to centrifugation at 14,000 rpm in an Eppendorf Centrifuge (Model 5415C). Then, aliquots of the supernatant, 0.01 ml, were removed from each sample, diluted with 0.03 ml of water and subjected to lactic acid determination using the kit supplied by Sigma. The latter contains, in addition to lactic dehydrogenase and NAD+, hydrazine, and glycine buffer, pH 9.2. The mixture was incubated for 30 min at 25° C. after which the absorbance due to formation of NADH was determined at 340 nm using a Gilford Model 260 spectrophotometer. To assess the elevation of the glycolytic activity of the VX2 tumor over that of liver tissue, parallel studies were always carried out in an identical manner with 1 g liver slices derived from the host liver. Finally, in those cases where agents were tested for their capacity to inhibit glycolysis, these were introduced into the system at the prior incubation step with all subsequent steps being run in parallel with those described above for the VX2 tumor or liver alone.
The screen included the following 9 compounds: 2-deoxyglucose (2DOG), 2-fluoro-2-deoxyglucose, 6-fluoro-6-deoxyglucose, 3-O-methyl glucose, 5-thio-D-glucose-6-phosphate, L-glucose, D-xylose, D-lyxose, and 3-bromopyruvic acid (3BrPA). The screen was conducted by incubating VX2 tumor slices in a medium containing 6 mM glucose with 6 mM of each of these agents at 37° C. for 5 h. The use of 6 mM glucose in the medium was used to mimic the maximal amount of glucose that might be in the blood in a real in vivo situation.
To compare the inhibitory effects of 2DOG and 3BrPA on the glycolytic capacity of the isolated liver implanted VX2 tumor, various concentrations of 2DOG and 3BrPA were prior incubated for 30 min at 37° C. with 1 g VX2 tumor slices and glycolysis was monitored.

VX2 tumor [1] = assay: PET/CT imaging and histopathology after 1-hour intraarterial infusion; format: in vivo, rabbit
Method: To further confirm the tumor destruction using 3-bromopyruvate, Positron Emission Tomography (PET)/CT imaging was conducted in rabbits before and after a single 1-hour intraarterial (infusion) therapy with 3-bromopyruvate. […] Since 3-bromopyruvate acts extremely quickly, PET/CT images were obtained within 2 hours of therapy to examine the process of making a decision regarding immediate re-treatment. After the PET/CT images were obtained, the 2 rabbits were sacrificed, their liver explanted and submitted for histopathologic analysis. Various staining methods that the tumor was completely (100%) dead and that the mechanism of cell death was apoptotic, thus confirming the use of PET imaging in assessing tumor response.

VX2 tumor [2] = assay: FDG uptake in orthotopic rabbit model of liver cancer, IA versus IV; format: in vivo
Method: To develop a new therapeutic strategy to cure patients with hepatocellular carcinoma, a similar series of experiments was conducted on the orthotopic rabbit model of liver cancer (VX2). The effects of 3-bromopyruvate injected intraarterially (IA) was compared to those of 3-bromopyruvate injected intravenously (N) on FDG uptake in the VX2 tumor. The optimal dose of 3-bromopyruvate for both IA and N administration was then determined through an extensive dose-response analysis. In the IA group, 3-bromopyruvate was infused over one hour, FDG injected at the 30-minute mark and all animals were then sacrificed one hour after the FDG injection. Tumors and all major organs were removed, weighed and analyzed in a gamma counter.

[3] = Intravenous dose-escalation study in normal Lewis rats; format: in vivo, rat; details: for therapeutic dose, intravenous: Lewis rats
Method: In order to determine the therapeutic dose of 3-bromopyruvate for intravenous (N) administration, a dose-escalation study was conducted in normal Lewis rats (non-tumor bearing). Each group of animals (6 rats per group) received incremental doses of 3-bromopyruvate intravenously (2.5 mL of 5, 10, 15, 20, 25 and 50 mM 3-bromopyruvate).

[4] = IA group, infused over one hour

O=C(O)C(=O)CBr [3-bromopyruvate]
inhibition of VX2 tumor glycolysis (screen) (VX2 tumor glycolysis; 6 mM agent, 6 mM glucose, VX2 tumor slices, 37° C., 5 h): almost completely inhibited | concentration for maximal / complete inhibition of glycolysis (VX2 tumor glycolysis; VX2 tumor slices, 2DOG maximal (70%), 3BrPA complete): about 15 mM | pIC50 (VX2 tumor glycolysis; prior incubated 30 min at 37° C. with 1 g VX2 tumor slices, read-out: half maximal inhibition of glycolysis): 2.62 | tumor activity on post-treatment PET/CT scans (VX2 tumor [1]; 2 hours after single 1-hour intraarterial infusion): complete disappearance of tumor activity | tumor death by histopathology (VX2 tumor [1]; after single 1-hour intraarterial infusion): 100% | mechanism of cell death (VX2 tumor [1]; histopathologic staining): apoptotic | FDG uptake in any other organs (VX2 tumor [2]; [4]): No difference in uptake | reduction of FDG uptake in the tumor (VX2 tumor [2]; [4]): 80% | FDG uptake in other organs (VX2 tumor [2]; N (intravenous) group): decreases in FDG uptake were also recorded in the lung, brain and liver | decrease of FDG uptake in the tumor (VX2 tumor [2]; N (intravenous) group): 30% | organs by histopathologic analysis ([3]; 50 mM IV): normal | therapeutic dose, intravenous ([3]; 2.5 mL IV, observed 3 weeks): 20 mM | therapeutic dose, intravenous ([3]; IV): 16.8 mg/kg | tolerability ([3]; all doses lower than 20 mM IV): well-tolerated and caused no deaths | clinical distress (appetite, urination, body weight) ([3]; doses lower than 20 mM IV): no evidence of clinical distress | major organs at necropsy ([3]; doses lower than 20 mM IV): without any damage | mortality ([3]; highest dose of 50 mM IV): all the animals in the group died | time to death ([3]; highest dose of 50 mM IV): ≤ 15 min
